Measured values from patent publication US12187696B2, “Urea motif containing compounds and derivatives thereof as antibacterial drugs” (Technische Universität München, priority 2016, dated 2025).
≈ marks a conversion by molar mass, not a printed value. Entries after “also recorded” stand apart in the source; their conditions may differ.

Legend:
[1] = system: Mycobacterium smegmatis mc^2 155; assay: Minimal inhibitory concentration (MIC) assay; type: cell-based; details: Mycolicibacterium smegmatis, MC^2155, LB medium
[2] = system: A549, HeLa, HepG2 and NIH/3T3 cells; assay: Cytotoxicity assay (MTT); type: cell-based, human; details: 24 h incubation, various cell lines
Experimental: The MTT assay was performed in 96 well plates. A549, HeLa and HepG2 cells were seeded with 4000 cells/well, whereas NIH/3T3 cells were seeded with 2000 cells/well. Cells were grown to 30-40% confluence at 37° C. and 5% CO2 over a time span of 24 h. The medium was removed and 100 μL medium/well containing varying concentrations of the respective compound and a final DMSO concentration of 0.1% were added to the cells in triplicates and incubated at 37° C. and 5% CO2 for 24 h. 20 μL Thiazolyl blue tetrazolium bromide (5 mg/mL in PBS, Sigma Aldrich) were added to the cells and incubated at 37° C. and 5% CO2 for 4 h until complete consumption was observed. After removal of the medium, the resulting formazan was dissolved in 200 μL DMSO. Optical density was measured at 570 nm (562 nm) and background subtracted at 630 nm (620 nm) by a TECAN Infinite M200 Pro.

MRSA ATCC 33591 = assay: Neutropenic murine thigh model; type: in vivo, S. aureus; details: 20 mg/kg orally 30 min, 4 and 8 h after inoculation; vs sham-treated mice
Experimental: PK/X17-1-150 (20 mg/kg) and the corresponding vehicle were administered orally after 30 min, 4 and 8 h after bacterial inoculation, whereas levofloxacin (5 mg/kg) and the corresponding vehicle were administered intraperitoneally after 2, 6 and 10 h after bacterial inoculation. N=6 for vehicle i.p., levofloxacin i.p. and for PK/X17-1-150; n=5 for vehicle p.o. Data are expressed as mean values±SD. **, p<0.01; ***, p<0.001.

[3] = system: Staphylococcus aureus VA412350; assay: Minimal inhibitory concentration (MIC) assay; type: cell-based; details: Staphylococcus aureus VA412350 (clinical isolate); B medium
[4] = system: S. aureus NCTC 8325 persister cells; assay: Persister cell assay I; type: cell-based; details: gentamicin-selected persisters in PBS; 70 h; 2.4 μM PK/X17-1-150, 24 μM sorafenib, 5 μg/mL ciprofloxacin
[5] = system: S. aureus NCTC 8325 persister cells; assay: Persister cell assay II; type: cell-based; details: TSB, with or without 30 μg/mL oxacillin; 20 h or 70 h; 2.4 μM PK/X17-1-150 or PK/X17-4-011, 24 μM sorafenib or PK/X17-2-011, 5 μg/mL ciprofloxacin
Experimental: Persister cell assay II. Tryptic soy broth (50 mL in 250 mL culture flasks) was inoculated 1:1000 with overnight cultures of NCTC 8325 and grown at 37° C. and 200 rpm until an OD600 of 4 was reached or overnight (ON). Serial dilution were prepared and plated to determine the cell numbers in the inoculum. […]. […] After 20 h (A) or 70 h (B) of treatment, cells were harvested, washed two times with PBS (10000×g, 3 min), serially diluted and plated on agar plates for determination of surviving cell numbers.

[6] = system: S. aureus DSM 4910 (NCTC 8325) biofilm; assay: Minimum biofilm eradication concentration (MBEC) assay; type: cell-based
Experimental: To each well of a flat-bottomed 96-well plate (BD Biosciences, BD 351172) 200 μL of overnight culture of bacteria diluted 1:100 in media is added. Plates are incubated for 24 hours at 37° C. to establish biofilms. After 24 hours, the wells are carefully emptied by inverting the plate and gently shaking. A pre-mixed solution of media and compound stock solution is added to each well and plates are incubated at 37° C. […] 100 μL of supernatant from each well are transferred to a fresh 96-well flat bottomed plate and the OD at 595 nm is measured using a plate reader (POLARstar Omega, BMG Labtech). Concentrations of compound yielding a regrown OD of less than 0.1 correspond to the MBEC. Six replicates are completed for each concentration of compound as well as positive and negative controls. […] DMSO was used as negative control compound, Oxacillin was used as positive control compound. Levels of crystal violet retained were measured spectrophotometrically at an OD of 595 nm. Concentrations of compound yielding a regrown OD of less than 0.1 correspond to the MBEC. Six replicates are completed for each concentration of compound as well as controls. […] Levels of crystal violet retained were measured spectrophotometrically at an OD of 595 nm. […]

[7] = system: Staphylococcus aureus USA300; assay: Minimal inhibitory concentration (MIC) assay; type: cell-based; details: B medium
S. aureus = assay: Murine bloodstream infection model; type: in vivo; details: S. aureus-infected mice, 20 mg/kg, compared to vehicle control
Experimental: Bacterial loads in the heart (left) and liver (right) of S. aureus-infected mice treated with 20 mg/kg of PK/[…]-1-150 (squares) or vehicle alone (circles). Each symbol represents an individual mouse. Compilation data from three independent experiments are presented. N=14 for vehicle and PK/[…]-1-150. Horizontal lines represent the mean values. **, p<0.01.

S. aureus NCTC8325 = assay: Analysis of S. aureus NCTC8325 secretome; details: 0.5×MIC (PK/X17-1-150 0.15 μM, sorafenib 1.5 μM), 1.5 h

| SMILES | MIC [1] | cytotoxicity (MTT) [2] | thigh bacterial load reduction (MRSA ATCC 33591) | MIC [3] | viable persister cells (CFU/mL) vs DMSO control [4] | viable persister cells (CFU/mL) vs DMSO control [5] | biofilm eradication effect ([6]; S. aureus DSM 4910, after 20 h of compound treatment) | biofilm eradication effect ([6]; S. aureus DSM 4910, after 70 h of compound treatment) | MIC [7] | reduction of bacterial load in heart (S. aureus) | reduction of bacterial load in liver (S. aureus) | secretome (secreted proteins) vs DMSO (S. aureus NCTC8325) |
| --- | --- | --- | --- | --- | --- | --- | --- | --- | --- | --- | --- | --- |
| O=C(Nc1ccc2c(c1)OC(F)(F)O2)Nc1ccc(Cl)c(C(F)(F)F)c1 [Example 4, 1-(4-Chloro-3-(trifluoromethyl)phenyl)-3-(2,2-difluorobenzo[d][1,3]dioxol-5-yl)urea] | 1 µM (≈ 0.395 µg/mL) | at concentrations higher compared to the antibacterial MICs | 1 log10 cfu/g thigh | 0.3 µM (≈ 0.118 µg/mL) | significant reduction of viable cells | significant reduction of viable cells | strongest effect | most potent effects | 0.3 µM (≈ 0.118 µg/mL) | 2 log cfu | 2 log cfu | Essential cell wall biosynthesis proteins are among the processed proteins; also recorded: strong increase of extracellular proteins |
| CNC(=O)c1cc(Oc2ccc(NC(=O)Nc3ccc(Cl)c(C(F)(F)F)c3)cc2)ccn1 [Sorafenib, reference compound] | 6 µM (≈ 2.79 µg/mL) |  |  | 5 µM (≈ 2.32 µg/mL) | significant reduction of viable cells | significant reduction of viable cells |  |  | 3 µM (≈ 1.39 µg/mL) |  |  | SpsB substrates are secreted; also recorded: strong increase of extracellular proteins |
